{"source": "paper PMC8536644", "about": "“Enigmatic mechanism of the N-vinylpyrrolidone hepatocarcinogenicity in the rat” (Archives of Toxicology, 2021)", "origin": "cited, not measured here", "test_system": "CYP2B", "conditions": "ref Waxmann [1999]; Lubet et al. [1985]; Tompkins and Wallac [2007]; cited from earlier work", "data": [{"smiles": "CCC1(c2ccccc2)C(=O)NC(=O)NC1=O", "note": "[phenobarbital]", "values": [{"measurement": "Increase of hepatic PROD activities", "result": "50 to 140", "unit": "fold"}]}]}
